From patent publication US6444612B1, “Use of 5-amino-pyrazol-derivatives for combating micro-organisms” (Bayer Aktiengesellschaft, priority 1998, dated 2002)

system: Venturia inaequalis; experiment: Venturia test (apple)/protective; assay type: in vivo; conditions: protective, application rate 100 g/ha, evaluation 12 days after inoculation, 100% = no infection
Method: Venturia Test (Apple)/Protective
Solvent: 47 parts by weight of acetone
Emulsifier: 3 parts by weight of alkylaryl polyglycol ether
To produce a suitable preparation of active compound, 1 part by weight of active compound is mixed with the stated amounts of solvent and emulsifier, and the concentrate is diluted with water to the desired concentration.
To test for protective activity, young plants are sprayed with the preparation of active compound at the stated application rate. After the spray coating has dried on, the plants are inoculated with an aqueous conidia suspension of the apple pathogen Venturia inaequalis and then remain in an incubation cabin at about 20° C. and 100% relative atmospheric humidity for 1 day.
The plants are then placed in the greenhouse at about 21° C. and a relative atmospheric humidity of about 90%.
Evaluation is carried out 12 days after the inoculation. 0% means an efficacy which corresponds to that of the control, whereas an efficacy of 100% means that no infection is observed.

SMILES | Efficacy in %
CCOC(=O)c1c(CC)nn(C)c1NC(=O)Cc1ccc(-c2ccc(OC(F)(F)F)cc2)cc1 [drawing 291] | 93%
CCc1nn(C)c(NC(=O)Cc2ccc(-c3ccc(OC(F)(F)F)cc3)cc2)c1Cl [drawing 292] | 96%
CCOC(=O)c1c(CC)nn(C)c1NC(=O)Cc1cccc(Oc2ccc(OC(F)(F)F)cc2)c1 [drawing 290] | 90%
CCc1cc(NC(=O)Cc2ccc(-c3ccc(OC(F)(F)F)cc3)cc2)n(C)n1 | 96%

system: not listed separately; experiment: log P value (physical constant); assay type: physicochemical; conditions: acidic

logP | SMILES
2.65 | CCOC(=O)c1c(CC)nn(C)c1NC(=O)Cc1cccc(Cl)c1 [Example 89, 5-(3-chloro-phenyl-acetyl)-amino-3-ethyl4-ethoxycarbonyl-l-methyl-pyrazole]

same assay, conditions: logP, Table 4

Physical constant (logP) | SMILES
logP = 3.70 | CCc1nn(C)c(NC(=O)Cc2c(C)cc(-c3cccc(Cl)c3)cc2C)c1C#N [Example 167]
logP = 3.49 | CCc1nn(C)c(NC(=O)Cc2cc(-c3ccc(Cl)cc3)ccc2C)c1C#N [Example 163]
logP = 3.46 | Cc1cc(-c2ccc(Cl)cc2)cc(C)c1CC(=O)Nc1c(C#N)c(C)nn1C [Example 154]
logP = 3.82 | Cc1cc(C)c(-c2ccc(Cl)cc2)cc1CC(=O)Nc1c(Cl)c(C)nn1C [Example 146]
logP = 2.83 | CCc1nn(C)c(NC(=O)Cc2c(C)cc(C)cc2C)c1C#N [Example 136]
logP = 2.36 | Cc1cc(C)c(CC(=O)Nc2c(C#N)c(C)nn2C)c(C)c1 [Example 137]
logP = 1.77 | Cc1cc(NC(=O)Cc2ccccc2Cl)n(CCC#N)n1 [Example 113]
logP = 3.41 | CCOC(=O)c1c(CC)nn(C)c1NC(=O)C=Cc1ccc(Oc2ccc([N+](=O)[O-])cc2)cc1 [Example 107]
logP = 3.70 | Cc1cc(C)c(-c2ccc(Cl)cc2)c(C)c1CC(=O)Nc1c(C#N)c(C)nn1C [Example 159]
logP = 3.43 | Cc1ccc(-c2ccc(Cl)cc2)c(C)c1CC(=O)Nc1c(C#N)c(C)nn1C [Example 156]
logP = 3.83 | CC(=NOCc1ccc(C(F)(F)F)cc1)c1cccc(CC(=O)Nc2c(Cl)c(C)nn2C)c1 [Example 127]
logP = 4.08 | Cc1cc(C)c(-c2ccc(Cl)cc2)c(C)c1CC(=O)Nc1c(Cl)c(C)nn1C [Example 147]
logP = 3.20 | CCc1nn(C)c(NC(=O)Cc2c(C)cc(-c3ccccc3OC)cc2C)c1C#N [Example 165]
logP = 1.48 | CC(=O)c1cccc(CC(=O)Nc2c(C#N)c(C)nn2C)c1 [Example 114]
logP = 3.24 | Cc1cc(C)c(-c2ccccc2Cl)cc1CC(=O)Nc1c(C#N)c(C)nn1C [Example 157]
logP = 3.05 | CCc1nn(C)c(NC(=O)C=Cc2ccc(Oc3ccc([N+](=O)[O-])cc3)cc2)c1C#N [Example 108]
logP = 3.16 | CCOC(=O)c1c(CC)nn(C)c1NC(=O)C=Cc1ccc(Oc2ccc(C#N)cc2)cc1 [Example 106]
logP = 1.88 | CC(=O)Oc1cccc(CC(=O)Nc2c(C#N)c(C)nn2C)c1 [Example 119]
logP = 3.74 | CCc1nn(C)c(NC(=O)Cc2c(C)cc(-c3ccc(Cl)cc3)cc2C)c1C#N [Example 166]
logP = 3.01 | CCc1nn(C)c(NC(=O)Cc2c(C)cc(C)cc2C)c1Cl [Example 102]
logP = 3.20 | Cc1ccc(-c2ccc(Cl)cc2)cc1CC(=O)Nc1c(C#N)c(C)nn1C [Example 151]
logP = 2.59 | CCc1nn(C)c(NC(=O)Cc2c(F)cc(F)c(F)c2C(F)(F)F)c1C#N [Example 172]

Physical constant (logP) | SMILES
logP = 3.53 | Cc1ccc(-c2cccc(Cl)c2)cc1CC(=O)Nc1c(Cl)c(C)nn1C [Example 140]
logP = 1.84 | CCc1nn(C)c(NC(=O)Cc2ccc(OC(C)=O)cc2)c1C#N [Example 120]
logP = 2.95 | COc1ccccc1-c1cc(C)c(CC(=O)Nc2c(C#N)c(C)nn2C)c(C)c1 [Example 153]
logP = 3.77 | CCc1nn(C)c(NC(=O)Cc2cc(-c3ccc(Cl)cc3)c(C)cc2C)c1C#N [Example 170]
logP = 2.06 | Cc1cc(NC(=O)Cc2ccc(Cl)cc2Cl)n(C)n1 [Example 121]
logP = 3.28 | CCOC(=O)c1c(CC)nn(C)c1NC(=O)Cc1cccc(Oc2ccccc2)c1 [Example 111]
logP = 1.91 | Cc1nn(C)c(NC(=O)Cc2ccccc2C(=O)NCc2ccc(Cl)nc2)c1Cl [Example 134]
logP = 1.50 | COC(=O)c1c(C)nn(C)c1NC(=O)Cc1cccc(C(C)=O)c1 [Example 116]
logP = 3.88 | Cc1cc(C)cc(-c2cc(C)c(CC(=O)Nc3c(C#N)c(C)nn3C)c(C)c2)c1 [Example 152]
logP = 3.44 | Cc1ccc(Oc2ccccc2CC(=O)Nc2c(Cl)c(C)nn2C)c(C)c1 [Example 138]
logP = 2.45 | Cn1nc(C2CC2)cc1NC(=O)Cc1ccc(Oc2ccc(C#N)cc2)cc1 [Example 109]
logP = 3.96 | CCc1nn(C)c(NC(=O)Cc2c(C)cc(-c3cc(C)cc(C)c3)cc2C)c1C#N [Example 164]
logP = 3.64 | Cc1cc(C)c(-c2ccccc2Cl)cc1CC(=O)Nc1c(Cl)c(C)nn1C [Example 145]
logP = 3.49 | Cc1cc(C)c(-c2ccc(Cl)cc2)cc1CC(=O)Nc1c(C#N)c(C)nn1C [Example 158]
logP = 2.11 | COC(=O)c1c(C)nn(C)c1NC(=O)Cc1cccc(Br)c1 [Example 135]
logP = 2.13 | CCc1cc(NC(=O)Cc2ccc(Br)cc2)n(C)n1 [Example 105]
logP = 3.79 | Cc1cc(-c2cccc(Cl)c2)cc(C)c1CC(=O)Nc1c(Cl)c(C)nn1C [Example 143]
logP = 3.84 | Cc1ccc(-c2ccc(Cl)cc2)c(C)c1CC(=O)Nc1c(Cl)c(C)nn1C [Example 144]
logP = 3.42 | Cc1cc(-c2cccc(Cl)c2)cc(C)c1CC(=O)Nc1c(C#N)c(C)nn1C [Example 155]
logP = 2.32 | CON=C(C)c1cccc(CC(=O)Nc2c(Cl)c(C)nn2C)c1 [Example 124]
logP = 3.51 | CCc1nn(C)c(NC(=O)Cc2cc(-c3ccccc3Cl)c(C)cc2C)c1C#N [Example 169]
logP = 2.60 | Cc1nn(C)c(NC(=O)Cc2c(F)cc(F)c(F)c2C(F)(F)F)c1Cl [Example 148]

Physical constant (logP) | SMILES
logP = 2.32 | Cc1nn(C)c(NC(=O)Cc2c(F)cc(F)c(F)c2C(F)(F)F)c1C#N [Example 160]
logP = 2.80 | C=CCON=C(C)c1cccc(CC(=O)Nc2c(Cl)c(C)nn2C)c1 [Example 132]
logP = 1.85 | CC(=NO)c1cccc(CC(=O)Nc2c(Cl)c(C)nn2C)c1 [Example 123]
logP = 4.09 | Cc1cc(C)cc(-c2cc(C)c(CC(=O)Nc3c(Cl)c(C)nn3C)c(C)c2)c1 [Example 141]
logP = 2.57 | Cc1nn(C)c(NC(=O)Cc2ccc(-c3ccccc3)cc2)c1C#N [Example 150]
logP = 2.80 | CC(=NOCc1ccc(Cl)nc1)c1cccc(CC(=O)Nc2c(Cl)c(C)nn2C)c1 [Example 128]
logP = 3.31 | CC(=NOCc1ccccc1)c1cccc(CC(=O)Nc2c(Cl)c(C)nn2C)c1 [Example 126]
logP = 3.26 | CCOC(=O)c1c(CC)nn(C)c1NC(=O)Cc1ccc(OCc2ccccc2)cc1 [Example 104]
logP = 1.50 | Cc1nn(C)c(NC(=O)Cc2ccccc2C(=O)O)c1Cl [Example 122]
logP = 2.81 | CCc1nn(C)c(NC(=O)Cc2ccc(-c3ccccc3)cc2)c1C#N [Example 162]
logP = 3.25 | COc1ccccc1-c1cc(C)c(CC(=O)Nc2c(Cl)c(C)nn2C)c(C)c1 [Example 142]
logP = 1.92 | CCCNC(=O)c1ccccc1CC(=O)Nc1c(Cl)c(C)nn1C [Example 133]
logP = 3.44 | CCc1nn(C)c(NC(=O)Cc2ccccc2Oc2ccc(C)cc2C)c1C#N [Example 161]
logP = 4.30 | CC(=NOCc1ccc(Cl)cc1Cl)c1cccc(CC(=O)Nc2c(Cl)c(C)nn2C)c1 [Example 129]
logP = 2.81 | Cc1nn(C)c(NC(=O)Cc2ccc(-c3ccccc3)cc2)c1Cl [Example 139]
logP = 3.17 | Cc1ccc(Oc2ccccc2CC(=O)Nc2c(C#N)c(C)nn2C)c(C)c1 [Example 149]
logP = 2.88 | CCON=C(C)c1cccc(CC(=O)Nc2c(Cl)c(C)nn2C)c1 [Example 125]
logP = 2.90 | Cn1nc(C2CC2)c(Cl)c1NC(=O)Cc1ccc(Oc2ccc(C#N)cc2)cc1 [Example 110]
logP = 3.91 | CC(=NOCc1c(Cl)cccc1Cl)c1cccc(CC(=O)Nc2c(Cl)c(C)nn2C)c1 [Example 131]
logP = 1.71 | CCc1nn(C)c(NC(=O)Cc2cccc(C(C)=O)c2)c1C#N [Example 115]
logP = 3.53 | CC(=NOC(C)(C)C)c1cccc(CC(=O)Nc2c(Cl)c(C)nn2C)c1 [Example 130]
